Read-outs that look alike come from different tables or passages of the source.
How the values were obtained:
GST-E6/His-caspase 8 = target: T1, GST-E6/His-caspase 8 (Human papillomavirus type 16, UniProt P03126); assay: AlphaScreen bead-based binding assay GST-E6/His-caspase 8; parameters: species or system HPV 16; conditions: for EC50 for GST-E6/His-caspase 8 interaction: bead-based assay, 1.4 μM–3.2 mM tested
T1 construct: made in house
Description: (§1) Figure 2 3-(1H-indol-1yl)propan-1-amine (1), three benzimidazole derivatives (2–4), and spinacine (5) inhibit protein–protein interactions. Five compounds at the indicated concentrations (1.4 μM–3.2 mM) were tested using our bead-based screening assay for their ability to inhibit three different protein/protein interactions: (a) GST-E6/His-caspase 8; (b) GST-E6/HisE6AP; and (c) GST-caspase 8/His-caspase 8. Binding in the presence of 1.4 μM of the test compound was set at 100%. Experiments were performed in triplicate, and error bars indicate the S.D.
(§2) The construction of the pGEX-E6, pTriEx-E6AP, and pTriEx-Caspase-8 DED plasmids has been reported.[33] Expression and purification of GSTE6, His-E6AP, and His-Caspase-8 DED were carried out as previously described.[33], [37] GST-tagged and His-tagged proteins were diluted into GST dilution buffer (PBS pH 8.0, 5% glycerol, 2 mM DTT) and His dilution buffer (20 mM Hepes pH 7.4, 150 mM NaCl, 2 mMKCl, 5% glycerol, 2 mM DTT), respectively. Protein concentration was measured using Coomassie Plus – The Better Bradford Assay Reagent (Thermo Scientific, Waltham, MA, USA). Purity of the isolated proteins was estimated following separation by sodium dodecyl sulfate-polyacrylamide gel electrophoresis (SDS-PAGE) and Coomassie staining.
(§3) AlphaScreen Technology was used to assess the interactions between GST-E6, GST-caspase 8, His-E6AP, and His-caspase 8. Binding assays were performed in white 384-well plates (Perkin-Elmer) in a total volume of 25 μl as previously described.[33] Briefly, 5 μl (50 ng) of GST-E6 and 5 μl (87.5 ng) of His-caspase 8 were included in each reaction mixture with 5 μl blocking buffer (0.5 mg BSA, 0.5% Tween 20 in PBS) in the absence or presence of 10 μM of each test chemical. Members of the library were present at 10 μM in DMSO. After a 1-h incubation of the mixture at room temperature, 5 μl donor beads and 5 μl acceptor beads (Perkin-Elmer) were added to each well according to the manufacturer's protocol. The mixture was incubated in the dark at room temperature overnight, and the emitted signal was detected using the Envision Multilabel plate reader (Perkin-Elmer). In the presence of test chemicals, the binding affinity was calculated as a percentage of the binding in the presence of carrier only (DMSO).

SiHa cells = assay: TRAIL-induced apoptosis in SiHa cells (MTT); format: cell-based, human; conditions: SiHa cells, compound 4 h prior to TRAIL 100 ng/ml + cycloheximide 5 μg/ml, overnight, MTT
Description: Figure 3 (a) HPV^+ SiHa cells are resistant to TRAIL-induced apoptosis as compared with the human osteosarcoma cell line U2OS. Cells (2 × 10^4 cells per well) were seeded into a 96-well plate, allowed to incubate overnight, and then treated with the indicated concentration of TRAIL in the presence of cycloheximide (5 μg/ml). The viability of cells was measured after overnight incubation using the MTT assay; the viability of cells untreated with TRAIL was set at 100% for each group. (b) The indicated concentrations of three small molecules were added to SiHa cells, and an MTT assay was preformed after overnight incubation. The viability of cells untreated with small molecules was set as 100%. (c) The indicated concentrations of myricetin or spinacine were added 4 h prior to TRAIL (100 ng/ml) in the presence of cycloheximide (5 μg/ml) and incubated at 37 °C overnight. The viability of cells untreated with small molecules was set at 100%. (d and e) SiHa cells (2 × 10^4 cells per well) were seeded into a 96-well plate and allowed to incubate overnight. In all, 100 μM of myricetin and 50 μM of spinacine were added 4 h prior to either (d) doxorubicin or (e) cisplatin. Cell viability was measured after overnight incubation using the MTT assay, and the viability of cells untreated with either myricetin or spinacine was set at 100%. Experiments were performed in triplicate, and error bars indicate the S.D.
Figure 5 Myricetin and spinacine (5) can re-sensitize HPV^+, but not HPV^−, cells to treatment with TRAIL. SiHa (2 × 10^4 cells per well) and C33A cells (1 × 10^4 cells per well) were seeded into a 96-well plate and allowed to incubate overnight, and then cells were pretreated in the presence or absence of (a) myricetin (100 μM) or (b) spinacine (50 μM) for 4 h. The indicated concentration of TRAIL along with cycloheximide (5 μg/ml) was added, and the cells were allowed to incubate overnight. Cell viability was measured by MTT assay, and the viability of cells untreated with TRAIL was set at 100%. Experiments were performed in triplicate, and error bars indicate the S.D.
The extracellular domain of human TRAIL was cloned into a pTriEx expression plasmid containing N-terminal Hisx6 tag. His-TRAIL was expressed in the E. coli BL-21 pLys strain and purified as previously described. Doxorubicin and cisplatin were purchased from Sigma. His-TRAIL, doxorubicin, and cisplatin were diluted in PBS to the desired concentration before using. To measure cell survival following treatment with TRAIL, cisplatin and doxorubicin, SiHa (2 × 10^4/well), C33A (1 × 10^4/well), and HNSCC cells (2 × 10^4/well) were seeded into 96-well plates and allowed to adhere overnight. Small molecules at the desired concentration were added and incubated at 37 °C for 4 h. As indicated, TRAIL, cisplatin, or doxorubicin was then added. The TRAIL treatment group contained cycloheximide (5 μg/ml) to inhibit de novo protein synthesis, and the cells were incubated for 16 h prior to measuring cell viability by the MTT assay preformed as described previously.[38] All experiments were repeated at least three times (three biological replicates, carried out on different days), with each experimental group measured in triplicate within each of these individual experiments. Data presented are from a representative experiment.

[1] = target: GST-caspase 8/His-caspase 8 (Homo sapiens, UniProt Q14790); assay: AlphaScreen counter-screen GST-caspase 8/His-caspase 8; format: binding
Sequence of GST-caspase 8/His-caspase 8 (Q14790 1-184): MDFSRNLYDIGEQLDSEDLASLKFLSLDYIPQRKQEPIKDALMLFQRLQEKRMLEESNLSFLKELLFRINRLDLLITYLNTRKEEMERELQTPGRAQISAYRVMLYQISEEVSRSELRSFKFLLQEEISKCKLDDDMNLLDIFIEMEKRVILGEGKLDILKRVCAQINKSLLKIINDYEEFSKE
Description: as §1
To ask whether this inhibition was specific, we employed a counter-screening assay in which we assessed the ability of candidates to inhibit the binding of GST-caspase 8 to His-caspase 8; those that did were to be eliminated. In this counter-screening assay, the materials in each well were the same as in the primary screen, with the exception that GST-caspase 8 replaced GST-E6.
as §3

GST-E6/His-E6AP = target: T2, GST-E6/His-E6AP (Human papillomavirus type 16, UniProt P03126); assay: AlphaScreen bead-based binding assay GST-E6/His-E6AP; parameters: species or system HPV 16; conditions: for EC50 for GST-E6/His-E6AP interaction: bead-based assay, 1.4 μM–3.2 mM tested
T2 construct: made in house
T2 sequence (P03126 whole entry): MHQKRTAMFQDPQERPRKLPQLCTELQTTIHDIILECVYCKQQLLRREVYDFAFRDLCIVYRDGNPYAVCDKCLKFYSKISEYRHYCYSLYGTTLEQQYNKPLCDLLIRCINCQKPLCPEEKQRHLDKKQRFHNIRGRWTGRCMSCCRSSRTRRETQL
Description: as §1, §2, §3

[2] = counter-screen, bead-based assay, 1.4 μM–3.2 mM tested

T1 sequence (P03126 whole entry): as above

| SMILES | EC50 for GST-E6/His-caspase 8 interaction (GST-E6/His-caspase 8) | EC50 for TRAIL-induced apoptosis (SiHa cells) | EC50 for GST-caspase 8/His-caspase 8 interaction [1, 2] | EC50 for GST-E6/His-E6AP interaction (GST-E6/His-E6AP) | EC50 (GST-E6/His-caspase 8) [µM] | EC50 ([1]; counter-screen, bead-based assay, 1.4 μM–3.2 mM tested, read-out: EC50 for GST-caspase 8/His-caspase 8 interaction) [µM] | EC50 (GST-E6/His-E6AP) [µM] | EC50 [1] [µM] |
| --- | --- | --- | --- | --- | --- | --- | --- | --- |
| OCn1cnc2ccccc21 [compound 3, 1H-benzimidazole-1-methanol] | No Inhibition | No sensitization | No Inhibition | No Inhibition |  |  |  |  |
| NCCCn1ccc2ccccc21 [compound 1, 3-(1H-indol-1-yl)propan-1-amine methanesulfonate] |  |  |  |  | 630 | 830 | 670 |  |
| c1ccc2[nH]cnc2c1 [compound 2, benzimidazole] |  |  |  |  | 1040 |  | 1480 | 1050 |
| COCc1nc2ccccc2[nH]1 [compound 4, 2-(methoxymethyl)-1H-benzimidazole] | No inhibition |  | No inhibition | No inhibition |  |  |  |  |

— PMC5154303, “Flavonol and imidazole derivatives block HPV16 E6 activities and reactivate apoptotic pathways in HPV^+ cells” (Cell Death & Disease, 2016)
